Results on one substance are retold here after patent US20220370396A1, “METHODS FOR MODULATING CONDITIONS OF THE EYE USING NOVEL LATANOPROST COMPOUND OPHTHALMIC COMPOSITIONS” (Somerset Therapeutics LLC, priority 2021, published 2022).

This data set can be described thus: Comparative stability testing of latanoprost formulations under refrigerated, room temperature and accelerated conditions. Format: physicochemical. The protocol:
Formulations prepared according to the invention as described in Example 1 were tested for stability under refrigerated conditions ((2-8° C.), […] (25° C./60% relative humidity) and accelerated conditions (40° C./75% relative humidity) to determine stability of such formulations. The stability data of the composition provided in Table 1 of Example 1 was also compared with Reference Product (XALATAN®). Stability results are provided in Table 3.
The stability data for the composition of Table 1, Example 1 (comprising the PCCC polyoxyl 40 hydrogenated castor oil), was compared to the composition of Table 2, Example 2, comprising the polysorbate-80.

As to polysorbate-80, the “Effect of surfactant on stabilization of latanoprost formulations” value is given as “marginal effect on stabilization”.
